# From US20090054376A1, “BENZOFURAN DERIVATIVES WITH THERAPEUTIC ACTIVITIES” (Pharmos Corporation, priority 2005, published 2009)
# Like-named read-outs stand apart in the source and are kept apart here.
# Assays:
# iNOS = test: Gene expression in LPS activated RAW 264.7 macrophages, iNOS; type: cell-based, mouse; details: RAW 264.7, 10 μM, LPS 1 μg/ml, RNA 3 hrs after activation, vs vehicle treated activated cells
# Method: (§1) RAW 264.7 macrophages, a mouse cell line (ATCC # TIB 71), were grown in Dulbecco's modified Eagle's medium (DMEM) with 4 mM L-glutamine adjusted to contain 1.5 g/L sodium bicarbonate, 4.5 g/L glucose, and 10% heat inactivated fetal bovine serum. Cells were grown in tissue culture flasks and seeded at appropriate density into 6 wells tissue culture plates. Four million Raw cells in half a milliliter were stimulated with 1 μg/ml LPS E. coli 055:B5 (DIFCO Laboratories). The mouse macrophages were pre-treated for one hour with controls or 10 μM of test compounds, and later on activated with LPS. RNA samples were extracted from the cells 3 hrs after activation and gene expression levels were analyzed by real-time RT-PCR. In parallel, supernatants were collected and secretion of inflammatory mediators was analyzed using ELISA techniques according to the instructions of the kit manufacturer.
# (§2) Total RNA is prepared using SV total RNA isolation system (Promega). The cells were homogenized in lysis buffer. The lysates were transferred to an RNA isolation column, treated with DNAse, washed and eluted according to kit instructions. RNA concentrations were determined using GeneQuant II (Pharmacia-Amersham). Complementary DNA (cDNA) was synthesized from total RNA using […] II reverse transcriptase (Life Technologies). 2 μg of total RNA were combined with an oligo (dT)15 primer, 0.5 mM dNTP mix, 8 units of reverse transcriptase and other reaction components up to a final volume of 20 μl, according to the kit instructions. The reaction mixture was incubated at 42° C. for 45 min and inactivated at 70° C. for 15 minutes. Quantitative real-time RT-PCR included 1 μl of the cDNA, 300 nM of the appropriate forward and reverse primers (according to the gene monitored) and 7.5 μl of the reaction mix containing buffer, nucleotides, Taq polymerase and SYBER green (SYBER Green master mix, Applied Biosystems), in a total reaction volume of 15 μl. Gene amplification was obtained using the GeneAmp 5700 sequence detection system (Applied Biosystems). Amplification included one stage of 10 minutes at 95° C. followed by 40 cycles of a 2-steps loop: 20 seconds at 95° C., and 1 minute at 60° C. During each annealing step, the amount of the amplified product was measured by the fluorescence of the double strand DNA binding dye, SYBER Green. The cycle of threshold (CT), representing the PCR cycle at which an increase in fluorescence above a baseline signal can be first detected, was determined for each product. A delay of one PCR cycle in the CT is translated into a two-fold decrease in starting template molecules and vice versa. The changes in the CT of the specific gene product were normalized to the changes in the CT of housekeeping cyclophilin or GAPDH as reference genes. Results were expressed as fold increase of gene expression in treated or untreated activated cells above the resting cells, after normalization to cyclophilin or GAPDH. Cells were also tested for viability to confirm that any effect on gene expression was indeed due to modulation of transcription of a specific target and not to cytoxicity.
# (§3) Results were further expressed as percent inhibition of gene expression in compound treated activated cells over vehicle “treated” activated cells. Since the modulation of IL-10 and TNF-α gene expression by the compounds of the invention is relatively minor, it is not reported. […] Inhibition above 50% was considered significant.
# Human CB2 Receptor = target: T1, Human CB2 Receptor (Homo sapiens, UniProt P34972); test: [35S]GTPγS-binding assay, hCB2; type: biochemical; details: GTPγS, Human CB2 Receptor; NB = no binding
# T1 construct: host or cells: Sf9 or HEK-293 cells (membranes)
# T1 sequence (P34972 whole entry): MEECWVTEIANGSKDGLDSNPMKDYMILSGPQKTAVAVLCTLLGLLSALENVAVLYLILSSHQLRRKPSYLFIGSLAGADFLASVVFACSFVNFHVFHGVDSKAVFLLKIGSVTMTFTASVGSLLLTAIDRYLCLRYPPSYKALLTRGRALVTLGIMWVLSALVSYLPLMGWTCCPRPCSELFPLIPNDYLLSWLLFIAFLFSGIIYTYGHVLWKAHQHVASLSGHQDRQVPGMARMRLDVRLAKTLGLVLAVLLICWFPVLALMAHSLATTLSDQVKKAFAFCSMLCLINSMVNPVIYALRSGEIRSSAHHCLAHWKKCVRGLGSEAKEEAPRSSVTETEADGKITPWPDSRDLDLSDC
# Method: (§4) Functional activity of compounds of the invention toward the cannabinoid receptors was determined by stimulation of [^35S]-GTPγS binding using membranes from HEK-293 cells expressing the hCB1 receptor and membranes expressing the hCB2 receptor derived from either Sf9 (PerkinElmer) or from HEK-293 cells. Activities were compared to that of the known cannabinoid full agonist CP55940 (Alexis). The purpose of this experiment is to determine the potency of the compounds of the invention as agonists or antagonists toward each of the receptor tested.
# (§5) [^35S]-GTPγS binding reactions were performed at 30° C. in 96-well plates containing 5-10 μg membrane protein suspended in 0.1 ml binding buffer [20 mM HEPES-NaOH, pH 7.4, 5 mM MgCl2, 100 mM NaCl, 0.2% (w/v) bovine serum albumin] supplemented with 50 μM GDP and 0.06 nM-10 μM of the compound being tested. Binding was initiated by the addition of [^35S]GTPγS (0.3 nM final concentration). Incubations were performed for 90 minutes and were terminated by filtration on GF/C filter plates (PerkinEimer). Filters were washed ten times with ice-cold wash buffer (20 mM HEPES-NaOH, pH 7.4, 10 mM sodium pyrophosphate). Non-specific binding was measured in the presence of 15 μM GTPγS.
# (§6) Assays were performed in duplicates. Data was analyzed by plotting on the X axis the log concentration against percent of specific [^35S]GTPγS binding out of basal [^35S]GTPγS binding on the Y axis, non-linear regression is then performed using GraphPad Prism, version 3.0 (GraphPad, San Diego, Calif.) to calculate the EC50 and Emax of the compound. The EC50 value represents the concentration at which there is 50% [^35S]GTPγS binding and the Emax value the upper plateau of the curve.
# Human CB1 Receptor = target: T2, Human CB1 Receptor (Homo sapiens, UniProt P21554); test: [35S]GTPγS-binding assay, hCB1; type: biochemical; details: NB = no binding
# T2 construct: expressed in transfected cells; host or cells: HEK-293 cells (membranes)
# T2 sequence (P21554 whole entry): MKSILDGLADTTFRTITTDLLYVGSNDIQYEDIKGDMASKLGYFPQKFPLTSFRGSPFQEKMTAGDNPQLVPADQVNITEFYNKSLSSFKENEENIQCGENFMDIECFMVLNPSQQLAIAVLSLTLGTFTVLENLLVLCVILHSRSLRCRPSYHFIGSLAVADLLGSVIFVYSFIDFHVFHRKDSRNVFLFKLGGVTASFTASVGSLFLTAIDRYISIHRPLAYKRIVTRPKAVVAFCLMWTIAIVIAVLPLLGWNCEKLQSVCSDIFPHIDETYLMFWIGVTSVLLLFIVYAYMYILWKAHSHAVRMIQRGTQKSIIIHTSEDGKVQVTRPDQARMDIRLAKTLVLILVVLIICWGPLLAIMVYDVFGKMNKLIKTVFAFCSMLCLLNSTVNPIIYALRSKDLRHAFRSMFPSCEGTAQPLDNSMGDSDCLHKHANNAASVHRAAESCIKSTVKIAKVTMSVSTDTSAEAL
# Method: as §4, §5, §6
# IL-1β = test: Gene expression in LPS activated RAW 264.7 macrophages, IL-1β; type: cell-based, mouse; details: RAW 264.7, 10 μM, LPS 1 μg/ml, RNA 3 hrs after activation, vs vehicle treated activated cells
# Method: as §1, §2, §3
# MCP-1 = test: Gene expression in LPS activated RAW 264.7 macrophages, MCP-1; type: cell-based, mouse; details: RAW 264.7, 10 μM, LPS 1 μg/ml, RNA 3 hrs after activation, vs vehicle treated activated cells
# Method: as §1, §2, §3
# [1] = tested on: carrageenan induced inflammatory pain and paw edema; test: Inflammatory pain and paw edema induced by carrageenan; type: in vivo, Male Sprague Dawley rats; details: for inhibition in vivo at 10 mg/kg: Rattus norvegicus, ip
# Procedure, shortened: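 Male Sprague Dawley rats (~200 g) received 0.1 ml 2% λ-carrageenan subplantar in the right paw; compounds given i.p. at 3, 10 or 20 mg/kg (some p.o.) immediately after. Thermal (Hargreaves) latency, mechanical threshold, paw thickness and volume measured at 0 and 3 h; values are inter-paw differences ([…], ΔForce), volume as % of vehicle.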
# COX-2 = test: Gene expression in LPS activated RAW 264.7 macrophages, COX-2; type: cell-based, mouse; details: RAW 264.7, 10 μM, LPS 1 μg/ml, RNA 3 hrs after activation, vs vehicle treated activated cells
# Method: as §1, §2, §3
# [2] = tested on: visceral pain writhing responses; test: Visceral pain, acetic acid induced writhing responses; type: in vivo, Male ICR mice; details: single dose 2 mg/kg i.v., compared to untreated group
# [3] = tested on: mechanical allodyna after chronic constriction of the sciatic nerve; test: Neuropathic pain, chronic constriction of the sciatic nerve (CCI); type: in vivo, Male Sprague Dawley rats; details: both 0.25 and 2 mg/kg i.v.
# Method: The analgesic activity of compounds of the invention was assessed in a chronic constriction induced (CCI) model of neuropathic pain. […] The development of mechanical allodyna was monitored using a Dynamic Plantar Sesthesiomether as described in Example 18. This apparatus is an automated version of the classical von Frey filaments' test.
# Pre-surgery baseline values were ascertained as the mean of 2 pre-surgery values. Once the baseline values are established, the animals were surgically prepared by constricting the right sciatic nerve with 4-0 chromic cat gut loose ligatures. On day 11 post-operation, the animals that have developed mechanical allodyna were arbitrarily allocated to the various treatment groups based on the pre-surgery values.
# The design was randomized, performed in a masked fashion as to whether drug or vehicle is being given. Male Sprague Dawley rats (average body weight 240 g, Harlan, Israel), were allowed to acclimatize to the behavioral testing equipment prior to testing. On the testing day, the animals, at least six per treatment group, were administered the compounds and controls at a volume dosage of 5 ml/kg. Fifteen minutes later, the mechanical stimulus was applied and the force, measured in grams, causing a withdrawal response for each of the ipsilateral and contralateral hind paws was evaluated.
# Results are expressed as mean±SEM for each treatment group and the differences among those groups are analyzed by analysis of variance (ANOVA) followed by post-hoc Tukey's test. A value of p<0.05 is considered to be statistically significant. Thereafter the difference in the force to be applied to the injured paw as compared to the normal paw was calculated. Δforce, expressed in grams, was measured at baseline and 1 and 4.5 hours after treatment.
# [4] = tested on: TNBS induced inflammatory bowel disease; test: TNBS induced inflammatory bowel disease; type: in vivo, Female Balb/C mice; details: for transient loss in body weight: one day after TNBS instillation; for mortality: untreated 60%
# Method: Female Balb/C mice (average body weight 20 g, Harlan, Israel) were lightly sedated and challenged rectally, by instillation with 70 μl of 2.5% TNBS (Sigma) dissolved in 50% ethanol, to induce intestinal inflammation and colitis. Animals were weighted before the beginning of the study and treatment was administered i.p. on a daily basis for six days at 20 mg/kg and volume dosage of 5 ml/kg. During the study period of up to 7 days, the following parameters were daily monitored and recorded: body weight, presence of blood in the stool and stool consistency. These findings are scored according to Table 6 [Murthy S.N. et al., Dig. Dis. Sci. 38:1722-34, 1993].
# On the last day of the study, animals were euthanized. Abdomen was open and the colon was sectioned at the level of the caecum and the rectum. The colon was weighted and its length was measured. The whole column was excised, slited longitudinally, and examined under a magnifying lens. Any visible damage was recorded and scored for gross pathology according to Wong [Wong et al., J. Pharm. Exp. Ther. 274: 475-80, 1995]. Namely, a score of 0 indicates no damage, 1 indicates localized hyperemia and/or edema, 2 indicates at least two sites of hyperemia and/or edema, 3 indicates localized erosion, 4 indicates localized ulcer and 5 indicates either an erosion site or ulcer extending for more than 2 cm along the colon or at least two sites of erosion or ulcer. Finally, the entire colon was fixed in 4% formaldehyde for histopathological evaluation.
# Each treatment group comprised at least seven animals. The following groups served as negative controls: naïve animals, sham animals that received 70 μl of 50% ethanol without TNBS, and TNBS challenged untreated and vehicle treated animals. A group of animals receiving 10 mg/kg sulfasalazine served as positive controls. Sulfasalazine is a standard anti-inflammatory drug used for the treatment of mild to moderate ulcerative colitis and Crohn's disease, and as adjunctive therapy in the treatment of severe ulcerative colitis. This drug is also used for the treatment of non-IBD related disorders, such as rheumatoid arthritis and ankylosing spondylitis. The recognized side effect of this medicament is its hepatotoxicity upon chronic treatment.
# [5] = 10 mg/kg i.p., 3 hours, mechanical stimulus, read-out: Percent Inhibition of Inflammatory Pain Responses, ΔForce
# [6] = 10 mg/kg i.p., 3 hours, thermal stimulus, read-out: Percent Inhibition of Inflammatory Pain Responses, ΔLT
smiles,measurement,setting,value
"CCCCC(C)(C)c1cc(OC(=O)C=CC(=O)O)c2c3c(oc2c1)CCCC3 [Compound C6M-8, But-2-enedioic acid mono-[3-(1,1-dimethylpentyl)-6,7,8,9-tetrahydro-dibenzofuran-1-yl]ester]","Percent inhibition of gene expression, iNOS",iNOS,66%
same,EC50,Human CB2 Receptor,> 10000 nM
same,EC50,Human CB1 Receptor,0.25 nM
same,Emax,Human CB1 Receptor; upper plateau of curve,-25%
same,"Percent inhibition of gene expression, IL-1β",IL-1β,51%
same,"Percent inhibition of gene expression, MCP-1",MCP-1,85%
same,inhibition in vivo at 10 mg/kg,[1]; [5],20%
same,inhibition in vivo at 10 mg/kg,[1]; [6],45%
"CCCCC(C)(C)c1cc(O)c2c(c1)OC1CC(C)(C)CCC21 (stereo not drawn) [Compound C6S-6, 3-(1,1-dimethylpentyl)-7,7-dimethyl-5a,6,7,8,9,9a-hexahydro-dibenzofuran-1-ol]","Percent inhibition of gene expression, iNOS",iNOS,"NO (NO indicates that the compound tested did not significantly affect the transcription of the gene assessed and that its activity is comparable to vehicle, within ±20% from this control)"
same,"Percent inhibition of gene expression, IL-1β",IL-1β,37%
same,"Percent inhibition of gene expression, COX-2",COX-2,"NO (NO indicates that the compound tested did not significantly affect the transcription of the gene assessed and that its activity is comparable to vehicle, within ±20% from this control)"
same,inhibition in vivo at 2 mg/kg,"[2]; Mus musculus, iv, read-out: Percent Inhibition of Visceral Pain Writhing Responses",38%
same,"Percent inhibition of gene expression, MCP-1",MCP-1,"NO (NO indicates that the compound tested did not significantly affect the transcription of the gene assessed and that its activity is comparable to vehicle, within ±20% from this control)"
"CCCCCCC(C)(C)c1cc(OCC(=O)O)c2c(c1)OC1C(O)CCCCC21 (stereo not drawn) [Compound C7S-10, [2-(1,1-dimethylheptyl)-9-hydroxy-5,6,7,8,9,9a-hexahydro-4bH-10-oxa-benzo[α]azulen-4-yloxy]-acetic acid]",pain response (Δforce),[3]; last time point (4.5 hours),totally abrogated the pain response
same,reduction of pain response (Δforce),[3]; one hour after administration,70-80%
same,Percent Inhibition of Visceral Pain Writhing Responses,[2],53%
same,"Percent Inhibition of Inflammatory Pain Responses, Edema","[1]; 10 mg/kg i.p., 3 hours after carrageenan, reduction in paw swelling",41%
same,"Percent Inhibition of Inflammatory Pain Responses, ΔForce","[1]; 10 mg/kg i.p., 3 hours, mechanical stimulus",25%
same,"Percent Inhibition of Inflammatory Pain Responses, ΔLT","[1]; 10 mg/kg i.p., 3 hours, thermal stimulus",61%
same,inhibition of paw swelling,[1]; 30 mg/kg p.o.,60%
"CCCCC(C)(C)c1cc(OCC(=O)O)c2c(c1)OC1CCCCC21 (stereo not drawn) [Compound C6S-9, [3-(1,1-Dimethylpentyl)-5a,6,7,8,9,9a-hexahydro-dibenzofuran-1-yloxy]-acetic acid]",transient loss in body weight,[4]; 20 mg/kg i.p. daily,behaved as the sulfasalazin treated group
same,mortality,[4]; 20 mg/kg i.p. daily,0%
same,inhibition in vivo at 10 mg/kg,[1]; [5],14%
same,inhibition in vivo at 10 mg/kg,[1]; [6],53%
"O=C(O)c1cc(/N=N/c2ccc(S(=O)(=O)Nc3ccccn3)cc2)ccc1O [sulfasalazine, reference compound]",regained normal weight on,[4]; 10 mg/kg,6 days
same,transient loss in body weight,[4]; 10 mg/kg,10%
same,mortality,[4]; 10 mg/kg,0%
